Results as given in ChEMBL document CHEMBL1201862, “PubChem BioAssay data set” (2004).
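1) Cells in 96-well plates. 2) Compound, 48 h, 5 concentrations. 3) Linear interpolation between surrounding doses. 4) Unreached endpoint = highest concentration. GI50 is the concentration that inhibits growth by half.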 The source made the active and inactive calls. No stated cut-off is given here; in the data, active = GI50 up to about 1.1 µM and inactive = higher.

What was measured:
Assay in all cases: growth of human tumour cells (NCI), 48 h
786-0 = system: 786-0
UACC-62 = system: UACC-62
SF-539 = system: SF-539
CAKI-1 = system: CAKI-1
OVCAR-3 = system: OVCAR-3
TK-10 = system: TK-10
UO-31 = system: UO-31
SNB-75 = system: SNB-75
KM12 = system: KM12
CCRF-CEM = system: CCRF-CEM
OVCAR-4 = system: OVCAR-4
NCI-H23 = system: NCI-H23
SK-MEL-5 = system: SK-MEL-5
SK-OV-3 = system: SK-OV-3
U-251 = system: U-251
HT-29 = system: HT-29
SN12C = system: SN12C
MOLT-4 = system: MOLT-4
HL-60 = system: HL-60

Measured: GI50

COc1ccc(C(C2C(=O)N(C)C(=O)N(C)C2=O)C(F)(F)C(=O)N(C)C)cc1 (stereo not given)
inactive: 786-0 > 100 µM | UACC-62 > 100 µM | SF-539 > 100 µM | CAKI-1 > 100 µM | OVCAR-3 > 100 µM | TK-10 > 100 µM | UO-31 > 100 µM | SNB-75 > 100 µM | KM12 > 100 µM | CCRF-CEM > 100 µM | OVCAR-4 > 100 µM | NCI-H23 > 100 µM | SK-MEL-5 > 100 µM | SK-OV-3 > 100 µM | U-251 > 100 µM

CCCc1cc(=O)oc2c3c(c4c(c12)OC(C)(C)CC4)O[C@@H](C)[C@H](C)[C@H]3O
inactive: 786-0 5.37 µM | HT-29 8.3 µM | UACC-62 9.02 µM | SF-539 17.6 µM | CAKI-1 35.1 µM | OVCAR-3 15.7 µM | UO-31 6.12 µM | SNB-75 10.3 µM | SN12C 4.22 µM | KM12 12.4 µM | CCRF-CEM 3.98 µM | MOLT-4 3.85 µM | OVCAR-4 10.1 µM | NCI-H23 12.2 µM | SK-MEL-5 6.7 µM | SK-OV-3 17.6 µM | U-251 11.8 µM

O=CNCNCCO
inactive: 786-0 > 100 µM | HT-29 55.1 µM | UACC-62 46.9 µM | CAKI-1 > 100 µM | OVCAR-3 > 100 µM | HL-60 20.7 µM | TK-10 > 100 µM | UO-31 > 100 µM | SNB-75 > 100 µM | CCRF-CEM > 100 µM | MOLT-4 > 100 µM | OVCAR-4 > 100 µM | NCI-H23 > 100 µM | SK-MEL-5 > 100 µM | SK-OV-3 > 100 µM | U-251 > 100 µM

C=Cc1cnc([N+](=O)[O-])n1C
inactive: 786-0 > 100 µM | HT-29 > 100 µM | SF-539 74.1 µM | CAKI-1 42.5 µM | OVCAR-3 69.7 µM | HL-60 48.6 µM | TK-10 36.1 µM | UO-31 27.4 µM | SN12C > 100 µM | KM12 36.2 µM | CCRF-CEM 46.1 µM | MOLT-4 53.8 µM | NCI-H23 98.9 µM | SK-MEL-5 83.2 µM | SK-OV-3 71 µM | U-251 > 100 µM

COP(C)(=O)/C(Cc1ccccc1)=N\O (stereo not given)
inactive: HT-29 > 100 µM | CAKI-1 > 100 µM | OVCAR-3 > 100 µM | HL-60 > 100 µM | TK-10 > 100 µM | UO-31 > 100 µM | SNB-75 > 100 µM | SN12C > 100 µM | CCRF-CEM > 100 µM | MOLT-4 > 100 µM | OVCAR-4 > 100 µM | NCI-H23 > 100 µM | SK-MEL-5 > 100 µM | SK-OV-3 > 100 µM | U-251 > 100 µM

COc1ccc(/N=C\c2cc(OC)c(OC)c(OC)c2)cc1
inactive: 786-0 > 100 µM | HT-29 > 100 µM | UACC-62 23.9 µM | SF-539 87.1 µM | TK-10 > 100 µM | UO-31 64.9 µM | SNB-75 > 100 µM | SN12C > 100 µM | KM12 > 100 µM | CCRF-CEM 57.5 µM | MOLT-4 > 100 µM | OVCAR-4 > 100 µM | NCI-H23 > 100 µM | SK-MEL-5 > 100 µM | SK-OV-3 > 100 µM | U-251 > 100 µM

CCOC(=O)c1csc(NC(=O)CCN2CCCCC2)n1
inactive: HT-29 > 100 µM | UACC-62 > 100 µM | SF-539 > 100 µM | CAKI-1 > 100 µM | OVCAR-3 > 100 µM | HL-60 > 100 µM | TK-10 > 100 µM | UO-31 > 100 µM | CCRF-CEM > 100 µM | MOLT-4 73.3 µM | OVCAR-4 > 100 µM | NCI-H23 > 100 µM | SK-MEL-5 > 100 µM | SK-OV-3 > 100 µM | U-251 > 100 µM
